Measured values as given in ChEMBL document CHEMBL6087420, “Synthesis and pharmacodynamic evaluation of 2-aminoindole derivatives against influenza A virus in vitro/vivo” (Eur J Med Chem, 2025).
Calls of active or inactive are those of the source. The rule behind the calls is not given here.

Experiments:
[1] = test system: Influenza A virus; assay: Antiviral activity against influenza A virus H1NI (A/Weiss/43) infected in compound pretreated MDCK cells assessed as reduction in viral absorption; type: functional, organism-based
[2] = Toxicity in healthy BALB/c mouse assessed as pathological change in colon at 25 to 100 mg/kg administered through gavage for 6 days; type: organism-based; conditions: in vivo, po, 144 h, dose 25-100 mg/kg, time 6 day
[3] = test system: Influenza A virus; assay: Inhibition of influenza A virus infection induced apoptosis in MDCK cells assessed as viable cells at 100 uM incubated for 36 hrs by AnnexinV-FITC/PI staining based flow cytometry (reference value: 97.6%); type: functional
[4] = test system: Influenza A virus; assay: Antiviral activity against influenza A virus infected in human A549 cells assessed as inhibition of RIG-1 protein expression at 25 to 100 uM by Western blot analysis; type: functional, organism-based; conditions: dose 25-100 µM
[5] = test system: Influenza A virus; assay: Antiviral activity against influenza A virus infected in human A549 cells assessed as inhibition of IRF7 expression by qRT-PCR analysis; type: functional, organism-based
[6] = Selectivity index, ratio of CC50 for dog MDCK cells to EC50 for antiviral activity against Influenza A virus H1NI (A/Virginia/ATCC2/2009) infected in MDCK cells; type: toxicity, cell-based; conditions: read-out: Selectivity Index
[7] = test system: Influenza A virus; assay: In vivo antiviral activity against influenza A virus infected in BALB/c mouse assessed as reduction in weight loss at 25 to 100 mg/kg; type: functional, organism-based; conditions: dose 25-100 mg/kg
[8] = Cytotoxicity against human A549 cells assessed as toxicity after 72 hrs of incubation by MTT assay; type: cell-based
[9] = test system: Influenza A virus; assay: Antiviral activity against influenza A virus H1NI (A/Weiss/43) infected in human A549 cells assessed as reduction in IAV-NP mRNA by qRT-PCR assay; type: functional, organism-based
[10] = test system: Influenza A virus; assay: Antiviral activity against influenza A virus H1NI (A/Weiss/43) virus infected in dog MDCK cells assessed as viral inhibition treated after 4 hrs of viral infection measured at 72 hrs incubation by MTT assay; type: functional
[11] = test system: Influenza A virus; assay: Antiviral activity against influenza A virus infected in human A549 cells assessed as inhibition of RIG-1 expression by qRT-PCR analysis; type: functional, organism-based
[12] = test system: Influenza A virus; assay: Inhibition of influenza A virus infection induced apoptosis in MDCK cells infected with influenza virus assessed as necrotic cells at 25 uM incubated for 36 hrs by AnnexinV-FITC/PI staining based flow cytometry (reference value: 1.79%); type: functional; parameters: scale not given: the % may be the effect or the level left
[13] = test system: Influenza A virus; assay: In vivo antiviral activity against influenza A virus infected in BALB/c mouse assessed as reduction in TNF-alpha mRNA level in lung at 25 to 100 mg/kg measured after 6 dpi; type: functional, organism-based; conditions: dose 25-100 mg/kg
[14] = test system: Influenza A virus; assay: Antiviral activity against influenza A virus infected in human A549 cells assessed as inhibition of MAVS expression by qRT-PCR analysis; type: functional, organism-based
[15] = Toxicity in healthy BALB/c mouse assessed as pathological change in heart at 25 to 100 mg/kg administered through gavage for 6 days; type: organism-based; conditions: in vivo, po, 144 h, dose 25-100 mg/kg, time 6 day
[16] = test system: Influenza A virus; assay: Antiviral activity against influenza A virus infected in A549 cells assessed as decrease in IAV-NP expression at 25 to 100 uM cells pretreated for 48 hrs followed by infected with virus by green fluorescent labelling based confocal microscopy; type: functional, organism-based; conditions: dose 25-100 µM
[17] = test system: Influenza A virus; assay: Inhibition of influenza A virus infection induced apoptosis in MDCK cells assessed as early apoptotic cells at 100 uM incubated for 36 hrs by AnnexinV-FITC/PI staining based flow cytometry (reference value: 0.96%); type: functional; parameters: scale not given: the % may be the effect or the level left
[18] = test system: Influenza A virus; assay: Anti-influenza activity against influenza A virus H3N2 (A/California/2014) infected in dog MDCK cells incubated for 72 hrs by MTT assay; type: functional, organism-based
[19] = test system: Influenza A virus; assay: Inhibition of influenza A virus infection induced apoptosis in MDCK cells assessed as necrotic cells at 100 uM incubated for 36 hrs by AnnexinV-FITC/PI staining based flow cytometry (reference value: 0.74%); type: functional; parameters: scale not given: the % may be the effect or the level left
[20] = test system: Influenza A virus; assay: Inhibition of influenza A virus infection induced apoptosis in MDCK cells infected with influenza virus assessed as decrease in cleaved caspase 3 at 25 to 100 uM incubated for 36 hrs by Western blot analysis; type: functional, organism-based; conditions: dose 25-100 µM
[21] = Toxicity in healthy BALB/c mouse assessed as pathological change in lungs at 25 to 100 mg/kg administered through gavage for 6 days; type: organism-based; conditions: in vivo, po, 144 h, dose 25-100 mg/kg, time 6 day
[22] = test system: Influenza A virus; assay: Inhibition of influenza A virus infection induced apoptosis in MDCK cells infected with influenza virus assessed as early apoptotic cells at 50 uM incubated for 36 hrs by AnnexinV-FITC/PI staining based flow cytometry (reference value: 18.2%); type: functional; parameters: scale not given: the % may be the effect or the level left
[23] = Toxicity in healthy BALB/c mouse assessed as pathological change in liver at 25 to 100 mg/kg administered through gavage for 6 days; type: organism-based; conditions: in vivo, po, 144 h, dose 25-100 mg/kg, time 6 day
[24] = test system: Influenza A virus; assay: Inhibition of influenza A virus infection induced apoptosis in MDCK cells infected with influenza virus assessed as viable cells at 100 uM incubated for 36 hrs by AnnexinV-FITC/PI staining based flow cytometry (reference value: 66.9%); type: functional
[25] = test system: Influenza A virus; assay: In vivo antiviral activity against influenza A virus infected in BALB/c mouse assessed as reduction in IFN-gamma mRNA level in lung at 25 to 100 mg/kg measured after 6 dpi; type: functional, organism-based; conditions: dose 25-100 mg/kg
[26] = test system: Influenza A virus; assay: Antiviral activity against influenza A virus infected in A549 cells assessed as decrease in IAV-M2 expression at 25 to 100 uM cells pretreated for 48 hrs followed by infected with virus by green fluorescent labelling based confocal microscopy; type: functional, organism-based; conditions: dose 25-100 µM
[27] = test system: MDCK; assay: Inhibition of influenza virus infection induced mitochondrial membrane potential loss in MDCK cells infected with influenza virus assessed as decrease in green fluorescence at 25 to 100 uM by JC-1 probe based confocal microscopy; type: functional, cell-based; conditions: Influenza A virus, dose 25-100 µM
[28] = test system: Influenza A virus; assay: In vivo antiviral activity against influenza A virus infected in BALB/c mouse assessed as reduction in IL-6 mRNA level in lung at 25 to 100 mg/kg measured after 6 dpi; type: functional, organism-based; conditions: dose 25-100 mg/kg
[29] = test system: Influenza A virus; assay: Antiviral activity against influenza A virus infected in A549 cells assessed as decrease in IAV-M2 expression pretreated for 48 hrs followed by infected with virus by Western blotting analysis; type: functional, organism-based; conditions: dose 25-100 µM
[30] = test system: Influenza A virus; assay: Inhibition of influenza A virus infection induced apoptosis in MDCK cells infected with influenza virus assessed as viable cells at 25 uM incubated for 36 hrs by AnnexinV-FITC/PI staining based flow cytometry (reference value: 66.9%); type: functional
[31] = test system: Influenza A virus; assay: Antiviral activity against influenza A virus infected in A549 cells assessed as decrease in IAV-NP expression pretreated for 48 hrs followed by infected with virus by Western blotting analysis; type: functional, organism-based; conditions: dose 25-100 µM
[32] = test system: Influenza A virus; assay: Antiviral activity against influenza A virus infected in human A549 cells assessed as inhibition of NF-kappaB protein expression at 25 to 100 uM by Western blot analysis; type: functional, organism-based; conditions: dose 25-100 µM
[33] = test system: Influenza A virus; assay: In vivo antiviral activity against influenza A virus infected in BALB/c mouse assessed as reduction in lung lesions at 25 to 100 mg/kg; type: functional, organism-based; conditions: dose 25-100 mg/kg
[34] = test system: Influenza A virus; assay: Antiviral activity against influenza A virus H1NI (A/Weiss/43) infected in MDCK cells assessed as reduction in IAV-NP mRNA by qRT-PCR assay; type: functional, organism-based
[35] = Cytotoxicity against dog MDCK cells after 72 hrs incubation by MTT assay; type: toxicity, cell-based, Canis lupus familiaris
[36] = test system: Influenza A virus; assay: Inhibition of Hemagglutinin in Influenza A virus

In the case of COc1ccc2c(c1)c(-c1ccccc1)c(NS(C)(=O)=O)n2S(=O)(=O)c1ccc(C)cc1, the Activity [1] is reported as “inactive”, the Activity [2] is reported as “Non-toxic” and the Activity [3] is reported as 96.7%. The Activity [4] was “Active”, the Activity [5] was “Active” and the selectivity ratio [6] was 51.9. The Activity [7] was “inactive”, the CC50 at 72 h [8] was 632 µM and the Activity [9] was “Active”. For the same compound, the “inhibition (INH)” value [10] was 85.3%, the Activity [11] was “Active” and the Activity [12] was 1.23%. For the same compound, the Activity [13] was “Active”, the Activity [14] was “Active” and the Activity [15] was “Non-toxic”. For the same compound, the Activity [16] was “Active”, the Activity [17] was 0.89% and the EC50 [18] was 18.3 µM. For the same compound, the Activity [19] was 1.78%, the Activity [20] was “Active” and the Activity [21] was “Non-toxic”. For the same compound, the Activity [22] was 9.21%, the Activity [23] was “Non-toxic” and the Activity [24] was 92.8%. For the same compound, the Activity [25] was “Active”, the Activity [26] was “Active” and the inhibition [27] was “Active”. The Activity [28] was “Active”, the Activity [29] was “Dose-dependent-effect” and the Activity [30] was 71.9%. For the same compound, the Activity [31] was “Dose-dependent-effect”, the Activity [32] was “Active” and the Activity [33] was “Active; Compound Alleviate Red Liver-Like Degeneration Stage, With Edema And Expansion, And Dark Red Lesions And Lung Consolidation - Only Mild Edema Observed”. The Activity [34] was “Active”, the CC50 at 72 h [35] was 669 µM and the inhibition [36] was “inactive”.
